Source: US10746637B2, “Aldehyde scavenging agent for retrieving elements from fixed tissue” (University of Houston System, priority 2013, dated 2020)
Entries after “also recorded” stand apart in the source; their conditions may differ.

Key:
[1] = tested on: Angiotensin I; experiment: Mass spectrometry of formalin treated Angiotensin I after heating with aldehyde scavenging compounds; settings: 5% compound, 95° C., 45 minutes
Experimental: Angiotensin I is treated with formalin at room temperature for 48 hours. […] Mass-spectrometry is used to analyze the compositions of the Angiotensin I before and after treatment by each compound. Samples of Angiotensin I before (FIG. 11A) and after (FIG. 11B) formalin treatments are used as the controls for the experiment. Peaks at m/z 1296 represent unmodified Angiotensin I. Peaks at m/z 1308 represent Angiotensin I with 1 methylene unit. Peaks at m/z 1320 represent Angiotensin I with 2 methylene units. Peaks at m/z 1338 represent Angiotensin I with 1 methylene unit and 1 hydroxymethylene group. Peaks at m/z 1350 represent Angiotensin I with 2 methylene units and 1 hydroxymethylene group.

[2] = tested on: ACTH (18-39) peptide; experiment: Mass spectrometry of formalin treated ACTH (18-39) peptide after heating with formaldehyde scavenging agents; settings: 5% compound, 98° C. for 45 minutes as printed with the result (method says 90° C.)
Experimental: ACTH (18-39) peptide is treated with formalin at room temperature for 48 hours (FIG. 12A). […] The composition of the formalin treated ACTH after each treatment is analyzed using mass spectrometry. The results shown in FIGS. 12A-12D are used to investigate the ability of the agents to reverse formaldehyde adducts. […] Only a small amount of ACTH with 3 methylene units is detected.

[3] = Autofluorescence of heated paraformaldehyde fixed paraffin embedded brain tissue; settings: 5% ascorbic acid; 70° C., 30 minutes; 488 nm excitation; versus tissue heated only in water
Description: Images are captured at same exposure and time.

[4] = tested on: collagen IV; experiment: Fluorescent enhancement after antigen retrieval with addition of Triton, Collagen IV detection of blood vessels; settings: 0.5% Triton X-100 added to 5.0% ascorbic acid solution; 70° C., 30 minutes; 488 nm excitation; versus without Triton X-100
Description: Images are captured using 488 nm excitation.

[5] = tested on: blood vessels; experiment: Antigen retrieval in paraformaldehyde fixed vascular tissue, visualization of blood vessels; settings: paraformaldehyde fixed tissue heated in solution of compound (FIGS. 4A-4E)
Description: Paraformaldehyde fixed tissue samples are heated in solutions of compounds prepared as described in Example 1 and the blood vessels in the tissue are visualized.

[6] = tested on: GAPDH; experiment: Dot blot of GAPDH in formaldehyde treated tissues; settings: maleic acid 1.6% to 12.8%, 95° C. for 30 minutes (FIG. 6B)
[7] = tested on: Collagen IV; experiment: Immunohistochemical staining of Collagen IV on formalin fixed paraffin embedded mouse brain sections after antigen retrieval with formaldehyde scavengers and enhancer; design: key: − being non-reactive; Immunoreactivity was scored on a scale of − to +++; Immunoreactivity was scored on a scale of − to +++; +++ being highly reactive; settings: Table 8; 0.05% maleic acid alone or with aniline, concentrations in label; 45 minutes at 95° C.
Experimental: 12-month-old C57Bl6J mice were housed under controlled environment conditions on a condition al 12 hour light dark cycle. Following sacrifice, brains were post-fixed in 4% paraformaldehyde for 72 hours at […] and then transferred to 70% ethanol solution where they were stored at 4° C. Tissue was paraffin-processed using convention dehydration and embedding, and then sectioned at 5 μm intervals.
Tissues were deparaffinized and rehydrated. Slides were placed in a plastic Coplin jar containing either distilled water or a combination of formaldehyde scavengers in combination with an enhancer. Jars were covered with a loose fitting screw cap and heated in a pressure cooker for 45 minutes at 95° C. After heating, the Coplin jars were removed and allowed to cool and rinsed in TBST for five minutes.
Immunohistochemical staining was performed using a three-step immunostaining technique using the ABC method. Briefly, all incubations were performed as follows: 1) primary antibodies were incubated overnight at 4° C., 2) secondary antibodies were incubated for 10 minutes at room temperature, 3) streptavidin-conjugated enzyme was incubated for 10 minutes at room temperature, 4) peroxidase substrate was incubated for 1 minute.

[8] = tested on: collagen IV; experiment: Antigen retrieval and immunodetection of collagen IV in paraformaldehyde fixed tissues (general method); settings: 0.05% maleic anhydride pretreatment; compared with TBST, low pH sodium citrate, pepsin (FIGS. 2A-2D)
Experimental: The solution is heated to about 70° C. to about 95° C. for about 30 minutes. The ensuing chemical reaction enables the unmasking or retrieval of the chemical epitopes. The formaldehyde-fixed tissue is placed into the heated solution for about 30 minutes and then washed. The tissues can then be stained to detect the protein of interest.

[9] = tested on: Collagen IV; experiment: Antigen retrieval in adult human brain vasculature, Collagen IV staining; settings: paraformaldehyde fixed paraffin embedded adult human brain tissue (FIG. 7)
Experimental: Paraformaldehyde fixed paraffin embedded tissue from adult human brain is treated with 2,3-dimethylmaleic acid as an antigen retrieval method as described.

O=C1O[C@H]([C@@H](O)CO)C(O)=C1O [ascorbic acid]
retrieval of formalin adducts of Angiotensin I [1]: significant retrieval of formalin adducts
conversion of modified ACTH (1, 2 or 3 methylene groups) into unmodified ACTH (m/z 2465) [2]: convert almost all the modified ACTH
tissue autofluorescence [3]: dramatically reduces visible autofluorescence; also recorded: reduction of autofluorescence

Triton X-100
staining evenness and fluorescence intensity after antigen retrieval [4]: significant improvement in staining evenness and intensity; also recorded: enhancement of fluorescence

O=C(O)/C=C\C(=O)O [0.05% Maleic acid, Maleic acid]
amount of Angiotensin I with 2 methylene units (m/z 1320) [1]: significantly reduce
content of unmodified Angiotensin I (m/z 1296) [1]: higher content of unmodified Angiotensin I
antigen retrieval with visualization of the blood vessels [5]: successful antigen retrieval
conversion of modified ACTH (1, 2 or 3 methylene groups) into unmodified ACTH (m/z 2465) [2]: convert almost all the modified ACTH
detection of GAPDH (dot blot) [6]: parallel increase in the detection of GAPDH
Result (immunoreactivity, Collagen IV staining) [7]: +

O=C1C=CC(=O)O1 [maleic anhydride]
antigen retrieval with visualization of the blood vessels [5]: successful antigen retrieval
antigen retrieval and immunodetection of collagen IV [8]: Superior antigen retrieval and immunodetection

C/C(C(=O)O)=C(\C)C(=O)O [2,3-dimethylmaleic acid]
detection of blood vessels using Collagen IV [9]: Blood vessels were detected
